Patent publication US20150119363A1, “METHODS OF TREATING BACTERIAL INFECTIONS” (Rampex Pharmaceuticals, Inc., priority 2012, published 2015)

What was measured:
[1] = test system: E. coli EC1061 (NDM-1 CMY-6); assay: Aztreonam/Tigemonam MIC at various concentrations of BLI; type: cell-based; settings: Escherichia coli, read-out: Aztreonam MIC (μg/ml) in the presence of BLI
Protocol: MIC values for each bacterial strain were measured for each antimicrobial compound at various concentrations of each BLI. […]

[2] = test system: K. pneumoniae KP1081 (NDM-1, CMY-6, SHV-11, CTX-M-15, TEM-1); assay: as above; type: cell-based; settings: Klebsiella pneumoniae, read-out: Aztreonam MIC (μg/ml) in the presence of BLI
Protocol: MIC values for each bacterial strain were measured for each antimicrobial compound at various concentrations of each BLI.

KP1004 KPC-2 = assay: Dose titration biapenem potentiation assay (MPC1); type: cell-based, Klebsiella pneumoniae; settings: biapenem 1 μg/mL
Protocol: (§1) The potency and spectrum of β-lactamase inhibitors is also determined by assessing their biapenem potentiation activity in a dose titration potentiation assay using strains expressing serine carbapemenases (such as KPC). The potentiation effect is observed as the ability of BLI compounds to inhibit growth in the presence of sub-inhibitory concentration of biapenem. […] Biapenem is present in the test medium at 1 μg/mL. Compounds tested at the highest concentration of 40 μg/mL. […] Table 5 summarizes BLI potency of biapenem potentiation (MPC1). Biapenem MIC for each strain is also shown.

KP1008 KPC-2 = assay: Dose titration biapenem potentiation assay (MPC1); type: cell-based, Klebsiella pneumoniae; settings: biapenem 1 μg/mL
Protocol: as §1

EC1007 KPC-3 = assay: Dose titration biapenem potentiation assay (MPC1); type: cell-based, Escherichia coli; settings: biapenem 1 μg/mL
Protocol: as §1

ECL1004 NMC-A = assay: Dose titration biapenem potentiation assay (MPC1); type: cell-based, Enterobacter cloacae; settings: biapenem 1 μg/mL
Protocol: as §1

| SMILES | MIC [1] [µg/mL] | MIC [2] [µg/mL] | BPM MPC1 KP1004 KPC-2 (KP1004 KPC-2) | BPM MPC1 KP1008 KPC-2 (KP1008 KPC-2) | BPM MPC1 EC1007 KPC-3 (EC1007 KPC-3) | BPM MPC1 ECL1004 NMC-A (ECL1004 NMC-A) |
| --- | --- | --- | --- | --- | --- | --- |
| C[C@H]1[C@H](NC(=O)/C(=N\OC(C)(C)C(=O)O)c2csc(N)n2)C(=O)N1S(=O)(=O)O [Aztreonam, reference compound] | 16 | 256 |  |  |  |  |
| O=C(O)C[C@@H]1CC[C@H](NC(=O)Cc2ccncc2)B(O)O1 [Compound 49, 2-((3R,6S)-2-hydroxy-3-(2-(pyridin-4-yl)acetamido)-1,2-oxaborinan-6-yl)acetic acid] |  |  | X (X = MPC1 of less than 1 μg/mL.) | X (X = MPC1 of less than 1 μg/mL.) | X (X = MPC1 of less than 1 μg/mL.) | X (X = MPC1 of less than 1 μg/mL.) |
| N[C@H]1CC[C@@H](CC(=O)N[C@H]2CC[C@@H](CC(=O)O)OB2O)CC1 [Compound 50, 2-((3R,6S)-3-(2-(4-aminocyclohexyl)acetamido)-2-hydroxy-1,2-oxaborinan-6-yl)acetic acid] |  |  | X (X = MPC1 of less than 1 μg/mL.) | X (X = MPC1 of less than 1 μg/mL.) | X (X = MPC1 of less than 1 μg/mL.) | X (X = MPC1 of less than 1 μg/mL.) |
| NC1(CC(=O)N[C@H]2CC[C@@H](CC(=O)O)OB2O)CCCCC1 [Compound 51, 2-((3R,6S)-3-(2-(1-aminocyclohexyl)acetamido)-2-hydroxy-1,2-oxaborinan-6-yl)acetic acid] |  |  | X (X = MPC1 of less than 1 μg/mL.) | X (X = MPC1 of less than 1 μg/mL.) | X (X = MPC1 of less than 1 μg/mL.) | Y (Y = MPC1 of 1 μg/mL to 5 μg/mL.) |
| O=C(O)C[C@@H]1CC[C@H](NC(=O)C[C@H]2CCCCN2)B(O)O1 [Compound 52, 2-((3R,6S)-2-hydroxy-3-(2-((R)-piperidin-2-yl)acetamido)-1,2-oxaborinan-6-yl)acetic acid] |  |  | X (X = MPC1 of less than 1 μg/mL.) | X (X = MPC1 of less than 1 μg/mL.) | X (X = MPC1 of less than 1 μg/mL.) | Y (Y = MPC1 of 1 μg/mL to 5 μg/mL.) |
| O=C(O)C[C@@H]1CC[C@H](NC(=O)C[C@@H]2CCCCN2)B(O)O1 [Compound 53, 2-((3R,6S)-2-hydroxy-3-(2-((S)-piperidin-2-yl)acetamido)-1,2-oxaborinan-6-yl)acetic acid] |  |  | X (X = MPC1 of less than 1 μg/mL.) | X (X = MPC1 of less than 1 μg/mL.) | X (X = MPC1 of less than 1 μg/mL.) | Y (Y = MPC1 of 1 μg/mL to 5 μg/mL.) |
| O=C(O)C[C@@H]1CC[C@H](NC(=O)Cn2ccnc2-c2ccccc2)B(O)O1 [Compound 54, 2-((3R,6S)-2-hydroxy-3-(2-(2-phenyl-1H-imidazol-1-yl)acetamido)-1,2-oxaborinan-6-yl)acetic acid] |  |  | X (X = MPC1 of less than 1 μg/mL.) | X (X = MPC1 of less than 1 μg/mL.) | X (X = MPC1 of less than 1 μg/mL.) | X (X = MPC1 of less than 1 μg/mL.) |
| Cc1nc2ccccc2n1CCC(=O)N[C@H]1CC[C@@H](CC(=O)O)OB1O [Compound 55] |  |  | X (X = MPC1 of less than 1 μg/mL.) | X (X = MPC1 of less than 1 μg/mL.) | X (X = MPC1 of less than 1 μg/mL.) | X (X = MPC1 of less than 1 μg/mL.) |
| O=C(O)C[C@@H]1CC[C@H](NC(=O)c2ccc(Cn3cnnn3)cc2)B(O)O1 [Compound 56, 2-((3R,6S)-3-(4-((1H-tetrazol-1-yl)methyl)benzamido)-2-hydroxy-1,2-oxaborinan-6-yl)acetic acid] |  |  | X (X = MPC1 of less than 1 μg/mL.) | X (X = MPC1 of less than 1 μg/mL.) | X (X = MPC1 of less than 1 μg/mL.) | X (X = MPC1 of less than 1 μg/mL.) |
| O=C(O)C[C@@H]1CC[C@H](NC(=O)Cc2ccccn2)B(O)O1 [Compound 57, 2-((3R,6S)-2-hydroxy-3-(2-(pyridin-2-yl)acetamido)-1,2-oxaborinan-6-yl)acetic acid] |  |  | X (X = MPC1 of less than 1 μg/mL.) | X (X = MPC1 of less than 1 μg/mL.) | X (X = MPC1 of less than 1 μg/mL.) | X (X = MPC1 of less than 1 μg/mL.) |
| C[C@]1(Cn2ccnn2)[C@H](C(=O)N[C@H]2CC[C@@H](CC(=O)O)OB2O)N2C(=O)C[C@H]2S1(=O)=O [Compound 59, 2-[(3R,6S)-2-hydroxy-3-[(2S,3S,5R)-3-methyl-4,4,7-trioxo-3-(1H-1,2,3-triazol-1-ylmethyl)-4λ^6-thia-1-azabicyclo[3.2.0]heptane-2-amido]-1,2-oxaborinan-6-yl]acetic acid] |  |  | Y (Y = MPC1 of 1 μg/mL to 5 μg/mL.) | X (X = MPC1 of less than 1 μg/mL.) | X (X = MPC1 of less than 1 μg/mL.) | X (X = MPC1 of less than 1 μg/mL.) |
| O=C(O)C[C@@H]1CC[C@H](NC(=O)CCc2nnc(-c3ccccc3)o2)B(O)O1 [Compound 60, 2-((3R,6S)-2-hydroxy-3-(3-(5-phenyl-1,3,4-oxadiazol-2-yl)propanamido)-1,2-oxaborinan-6-yl)acetic acid] |  |  | X (X = MPC1 of less than 1 μg/mL.) | X (X = MPC1 of less than 1 μg/mL.) | X (X = MPC1 of less than 1 μg/mL.) | X (X = MPC1 of less than 1 μg/mL.) |
| Nc1nc(/C(=N/OCc2cc(=O)c(O)cn2O)C(=O)N[C@H]2CC[C@@H](CC(=O)O)OB2O)cs1 [Compound 62, 2-((3R)-3-((Z)-2-(2-aminothiazol-4-yl)-2-((1,5-dihydroxy-4-oxo-1,4-dihydropyridin-2-yl)methoxyimino)acetamido)-2-hydroxy-1,2-oxaborinan-6-yl)acetic acid] |  |  | X (X = MPC1 of less than 1 μg/mL.) | X (X = MPC1 of less than 1 μg/mL.) | X (X = MPC1 of less than 1 μg/mL.) | X (X = MPC1 of less than 1 μg/mL.) |
| O=C(O)CC1CCC[C@H](NC(=O)Cc2cccs2)B(O)O1 (stereo partly drawn) [Compound 63, 2-((3R)-2-hydroxy-3-(2-(thiophen-2-yl)acetamido)-1,2-oxaborepan-7-yl)acetic acid] |  |  | Y (Y = MPC1 of 1 μg/mL to 5 μg/mL.) | X (X = MPC1 of less than 1 μg/mL.) | Y (Y = MPC1 of 1 μg/mL to 5 μg/mL.) | Y (Y = MPC1 of 1 μg/mL to 5 μg/mL.) |
| O=C(O)CC1C=CC[C@H](NC(=O)Cc2cccs2)B(O)O1 (stereo partly drawn) [Compound 64, 2-((3R)-2-hydroxy-3-(2-(thiophen-2-yl)acetamido)-2,3,4,7-tetrahydro-1,2-oxaborepin-7-yl)acetic acid] |  |  | Y (Y = MPC1 of 1 μg/mL to 5 μg/mL.) | X (X = MPC1 of less than 1 μg/mL.) | X (X = MPC1 of less than 1 μg/mL.) | X (X = MPC1 of less than 1 μg/mL.) |
| CCOC(=O)C[C@@H]1CC[C@H](NC(=O)Cc2cccs2)B(O)O1 [Compound 65, ethyl 2-((3R,6S)-2-hydroxy-3-(2-(thiophen-2-yl)acetamido)-1,2-oxaborinan-6-yl)acetate] |  |  | Y (Y = MPC1 of 1 μg/mL to 5 μg/mL.) | X (X = MPC1 of less than 1 μg/mL.) | Y (Y = MPC1 of 1 μg/mL to 5 μg/mL.) | Z (Z = MPC1 of greater than 5 μg/mL.) |
| O=C(O)C[C@@H]1CC[C@H](NC(=O)Cc2cc(F)cc(F)c2)B(O)O1 [Compound 66, 2-((3R,6S)-3-(2-(3,5-difluorophenyl)acetamido)-2-hydroxy-1,2-oxaborinan-6-yl)acetic acid] |  |  | X (X = MPC1 of less than 1 μg/mL.) | X (X = MPC1 of less than 1 μg/mL.) | X (X = MPC1 of less than 1 μg/mL.) | X (X = MPC1 of less than 1 μg/mL.) |
